Assay results taken from patent US8513195B2, “Treatment of mood and anxiety disorders” (priority 2008, dated 2013).

Assays:
[1] = test system: mice; conditions: described in the literature; cited from earlier work
[2] = test system: mice; experiment: mouse forced swimming test (FST); type: in vivo; conditions: i.p., peptide 90 min, desipramine (20 mg/kg) 30 min prior to test, last 4 min of 6-min test
Experimental: (§1) In these tests experimental animals are exposed to inescapable aversive situations (hanging by the tail, being into the water) and in response show alternate periods of agitation and immobility reflecting “attempts to escape” and ‘behavioural resignation” respectively.
(§2) The details of the experimental protocols used are as follows: mice were injected i.p. with vehicle, different doses of the peptide TAT-DEF-Elk-1, of a scrambled peptide (serving as control), of the MEK inhibitor SL327, or with the reference antidepressants fluoxetine (20 mg/kg) or desipramine (20 mg/kg), at appropriate time points before the test trial.
(§3) In the TST, each mouse was tested in an individual cubicle while suspended from a tail hanger with adhesive tape wrapped around its tail (1.5-2 cm from tip) 80 cm above the floor. The trial was conducted for 5 min, during which the duration of immobility was measured automatically (BIOSEB, France). For the FST, mice were placed in clear plastic cylinders (diameter 10 cm; height 25 cm) filled with water at 6 cm height (22-25° C.) for 6 min. A blinded observer scored the duration of immobility manually during the last 4 min of the 6-min test.

[3] = test system: mice; experiment: mouse tail suspension test (TST); type: in vivo; conditions: i.p., peptide 90 min, desipramine and fluoxetine (20 mg/kg) 30 min prior to test, 5 min trial
Experimental: as §1, §2, §3

[4] = test system: mice; experiment: social defeat stress (SDS) test; type: in vivo, mouse; conditions: peptide 1 mg/kg; for SDS-induced social avoidance (time spend interacting, TSI): defeated mice, treated 15 or 21 days
From the text: (A) Data represent means+/−SE of time spend interacting (TSI) with the cage, in the absence (non-hatched bars) or presence (hatched bars) of the target. When target is present, control mice engage in active social behaviour, seen as an increase of TSI (panel a), while vehicle-treated defeated mice (panel b; white bars) show lower TSI, indicating social avoidance.
In the social defeat stress test (SDS), mice were exposed repeatedly (2 week) to aggressive mice; controls were gently handled. Subsequently, the aggressors were removed. Mice were treated with vehicle or TAT-DEF-Elk1 (1 mg/kg) for 15 or 21 days, and then tested for SDS-induced social avoidance. The test box contained a perforated plastic cage that was empty for the first test session and that held a neutral mouse (target) for the second test session.

[5] = test system: plasma corticosterone; experiment: plasma corticosterone after 30 min restraint stress (RIA); type: in vivo, C57BL/6J mice
Experimental: Data represent means+/−SE of plasma corticosterone in banal conditions (non-stressed, light grey bars) and immediately after a 30-min restraint stress (dark grey bars); vehicle or the TAT-DEF-Elk1 peptide were administered […] before the beginning of stress; *p<0.05 as compared to non-stressed; #p<0.05 as compared to vehicle-treated.
In the second experiment C57BL/6J mice (10 weeks old) were injected with TAT-DEF-Elk1 peptide or vehicle; 1 h30 after the injection the mice were subjected to a 30 min restraint stress i.e. mice were confined individually in a 50 ml Falcon tube in which a hole was made at the top for the mice to breathe. Mice were decapitated directly after restraint, blood was collected in 2 ml eppendorfs containing EDTA at 4° C. Samples were centrifuged for 15 min at 760 g, plasma was collected and corticosterone assessed using the Corticosterone Double Antibody 125-I RIA kit (MP BIOMEDICAL).

[6] = test system: ERK; experiment: tail suspension-induced ERK phosphorylation (immunochemistry); type: in vivo, mouse; conditions: 2 mg/kg, 1 h30 before 10 min TST; perfused 20 min after start
Experimental: (§4) In the first experiment, TAT-DEF-Elk-1 peptide (2 mg/kg) or vehicle were administrated 1 h30 before a 10 min tail suspension trial (TST). Mice were perfused 20 min after starting the TST test and phosphorylation of ERK and Elk1 was assessed with immunochemistry.

[7] = test system: Elk1; experiment: tail suspension-induced Elk1 phosphorylation in medial prefrontal cortex (immunochemistry); type: in vivo, mouse; conditions: 2 mg/kg, 1 h30 before 10 min TST; perfused 20 min after start
Experimental: as §4

[8] = test system: mice; experiment: unpredictable chronic mild stress paradigm (UCMS); type: in vivo, mouse; conditions: for UCMS-induced immobility in the TST / sucrose preference (% of sugar of total consumption): end of 3-week UCMS, peptide 1 mg/kg or fluoxetine 20 mg/kg once daily
From the text: We have also assessed the effects of the TAT-DEF-Elk1 peptide in the unpredictable chronic mild stress paradigm ([…] is used as a pertinent model of depression with aetiological validity. In UCMS protocols animals are subjected for a long period to different non-anticipated stressors. Chronic exposure to stress results to a syndrome in mice that reproduces symptoms of depression, including increased resignation, anxiety-like behavior, decreased consumption of palatable food, and physiological changes. Chronic administration of compounds with antidepressant activity reverses these changes. The protocol that we have used consists of three weeks of UCMS, during which mice were subjected to various stressors according to a 'random' schedule. Body weight and coat state were assessed weekly, as markers of the progression of the UCMS-evoked syndrome. At the end of the 3 week period the emotional state of the mice was tested in behavioral tests of emotionality and of depression-like behaviors (FIG. 3A). Experimental groups of mice were as follows: (i) non-stressed mice: these were group housed and were handled and maintained under standard laboratory conditions (Group 1; FIG. 3B), (ii) stressed mice: these were maintained under standard laboratory conditions but were isolated in small individual cages. During the three week protocol they were exposed to three mild stressors per day. Stressed-mice were treated either with vehicle (Group 2; FIG. 3B), with the peptide (1 mg/kg; once daily), or with the reference antidepressant fluoxetine (20 mg/kg; once daily) (Group 3; FIG. 3B). Treatment with vehicle or compounds started at the beginning of the UCMS and lasted throughout the three week period. At the end of the UCMS paradigm, mice were tested for depressive-like responses, such as passivity and resignation measured as increased immobility in the tail suspension test and anhedonia measured as the preference to sucrose.

[9] = stressed mice, peptide 1 mg/kg once daily for three weeks

Molecule: CN(C)CCCN1c2ccccc2CCc2ccccc21 [imipramine]
- duration of administration after which antidepressant action in the SDS test [1]: 39 days

Molecule: CNCCCN1c2ccccc2CCc2ccccc21 [desipramine, reference compound]
- immobility in the FST [2]: antidepressant-like effects similar to the classical antidepressant desipramine
- immobility in the TST [3]: of similar magnitude of that of fluoxetine and desipramine
- SDS-induced social avoidance (time spend interacting, TSI) [4]: did not have any effect

Molecule: GRKKRRQRRRPPSPAKLSFQFPSSGSAQVHI (selective peptide inhibitor of Elk-1 activation - TAT-DEF-Elk-1) [TAT-DEF-Elk-1 peptide]
- stress induced elevation of plasma corticosterone ([5]; immediately after 30-min restraint stress, injected 1 h30 before): markedly reduces stress induced-elevations in plasma level corticosterone
- basal plasma level corticosterone ([5]; non-stressed mice): does not affect basal plasma level corticosterone
- immobility in the FST [2]: induced antidepressant-like effects in the FST
- tail suspension-induced ERK phosphorylation [6]: does not inhibit tail suspension-induced ERK phosphorylation
- immobility in the TST [3]: reduced immobility in the TST similar to classical antidepressants
- tail suspension-induced Elk1 phosphorylation in mPFCx [7]: reduces selectively tail suspension-induced Elk1 phosphorylation
- SDS-induced social avoidance (time spend interacting, TSI) [4]: fully reverses this behaviour
- duration of administration after which active in the SDS test [4]: 15 days
- UCMS-induced immobility in the TST [8]: reduced UPMS-induced immobility in the TST
- sucrose preference (% of sugar of total consumption) [8]: fully restored UCMS-blunted sucrose preference
- UCMS-induced body weight loss [8, 9]: reversed the progressive weight loss induced by UCMS
- UCMS-induced degradation of the coat state [8, 9]: diminished the degradation of the coat state

Molecule: CNCCC(Oc1ccc(C(F)(F)F)cc1)c1ccccc1 (stereo not shown) [fluoxetine, reference compound]
- immobility in the TST [3]: of similar magnitude of that of fluoxetine and desipramine
- UCMS-induced immobility in the TST [8]: similarly to the reference antidepressant fluoxetine
- sucrose preference (% of sugar of total consumption) [8]: similarly to the reference antidepressant fluoxetine
